In patent US10349659B2, “Plant disease control composition and plant disease control method” (SUMITOMO CHEMICAL COMPANY, LIMITED, priority 2015, dated 2019):

Assays:
[1] = tested on: wheat leaf blight fungus; test: Test Example 3: growth of wheat leaf blight fungus in YBG medium, microtiter plate; type: cell-based, Mycosphaerella graminicola; conditions: 18° C., six days, absorbance 550 nm
Protocol: The present compound 1 or the present compound 2-1 was dissolved into dimethyl sulfoxide such that each concentration of the present compound 1 or the present compound 2-1 was adjusted to one hundred fifty times as much as the concentration indicated in the below-mentioned Table 5. The resultant agent solution was dispensed into a microtiter plate (with 96 wells) in 1 μl portion thereof per well. One hundred forty nine (149) μl of YBG medium (which was prepared by dissolving 10 g of yeast extract, 10 g of Bacto Peptone, and 20 mL of glycerol into 1 L of water, followed by sterilizing the medium) was dispensed into the wells to which the agent solution(s) was/were dispensed. The plate was cultivated at 18° C. for six days, thereby allowing wheat leaf blight fungus to undergo proliferation, and the absorbance at 550 nm of each well of the micro titer plate was then measured to examine a degree of growth of the wheat leaf blight fungus (hereinafter referred to as “treated group”).
Whereas, wheat leaf blight fungus was proliferated similarly to the case of the treated group except that dimethyl sulfoxide was used instead of the agent solution, and the degree of the growth was examined (hereinafter referred to as “untreated group”). The efficacy was calculated from the respective obtained degree of growth by the below-mentioned “Equation 1”. […]

[2] = tested on: wheat rust fungus (Puccinia recondita); test: Test Example 4: foliar spray of flowable formulations on wheat, wheat rust lesion area; type: in vivo; conditions: foliar spray on wheat one day before inoculation, lesion area after ten days at 23° C.
Protocol: Five (5) parts of the present compound 1, 35 parts of a mixture of white carbon and ammonium polyoxyethylene alkyl ether sulfate (the weight ratio of 1:1) and […] of water were mixed, and the mixture was then finely-ground by a wet grinding method to obtain a flowable formulation comprising the present compound 1. Separately, the flowable formulation comprising the present compound 2-1 was prepared according to the above-mentioned similar method except that the present compound 2-1 was used instead of the present compound 1 to form a flowable formulation comprising the present compound 2-1.
Each of the above-mentioned respective flowable formulations, and the flowable formulation comprising the present compound 1 and the present compound 2-1 that was prepared according to the above-mentioned Formulation Example 3 was diluted with water such that each concentration of the respective compounds in the dilution solutions was adjusted to that indicated in Table 6, to prepare the dilution solutions, respectively.
A plastic pot was filled with soil, and thereto wheat (cultivar. Shirogane) was seeded, and the plants were grown in a greenhouse for ten days. […]
From each of the lesion area of the treated group and the untreated group, respectively, the efficacy of the treated group was calculated by the below-mentioned Equation 2. […]

## CC1CC(C)(C)c2cccc(NC(=O)c3cn(C)nc3C(F)F)c21 (stereo not shown) [Present compound 1]
[1]; concentration in medium 0.005 ppm
  Efficacy (%): 15%
[1]; concentration in medium 0.1 ppm
  Efficacy (%): 70%
[2]; 0.0005 ppm
  Efficacy (%): 56%
[2]; 0.01 ppm
  Efficacy (%): 68%
